Laboratory results taken from ChEMBL document CHEMBL5390269, “Synthesis, anti-inflammatory activity, and conformational relationship studies of chromone derivatives incorporating amide groups” (Bioorg Med Chem Lett, 2023).

Test system: not listed separately
Experiment: Cytotoxicity against mouse RAW264.7 cells assessed as cell growth inhibition by CCK-8 colorimetric assay
Type: toxicity, cell-based

SMILES	IC50 [µM]
COc1cccc2oc(C(=O)Nc3cc(Cl)ccc3C)cc(=O)c12	48
CC(C)Cc1ccc(C(C)C(=O)O)cc1 (stereo unspecified) [IBUPROFEN]	> 1000
COc1ccc2c(=O)cc(C(=O)Nc3ccccc3C)oc2c1	813
O=C(Nc1ccc(Br)cc1)c1cc(=O)c2ccccc2o1	24.3
COc1cc(OC)c2c(=O)cc(C(=O)Nc3ccc(C)c(Cl)c3)oc2c1	48
O=C(Nc1ccc(C(F)(F)F)cc1)c1cc(=O)c2ccc(Br)cc2o1	324
Cc1ccc2oc(C(=O)Nc3cc(Cl)ccc3C)cc(=O)c2c1	38.4

Test system: RAW264.7
Experiment: Anti-inflammatory activity in mouse RAW264.7 cells assessed as inhibition of LPS-stimulated NO production
Type: functional, cell-based

SMILES	EC50 [µM]
COc1cc(OC)c2c(=O)cc(C(=O)Nc3cc(Cl)ccc3C)oc2c1	18.7
CC(C)Cc1ccc(C(C)C(=O)O)cc1 (stereo unspecified) [IBUPROFEN]	26.7
COc1cc(OC)c2c(=O)cc(C(=O)Nc3ccc(C(F)(F)F)cc3)oc2c1	31.7
COc1cccc2oc(C(=O)Nc3ccc(Cl)c(C(F)(F)F)c3)cc(=O)c12	448
COc1ccc(NC(=O)c2cc(=O)c3ccccc3o2)cc1	42.1
COc1ccc(NC(=O)c2cc(=O)c3c(OC)cc(OC)cc3o2)cc1	21.3
O=C(Nc1ccc(C(F)(F)F)cc1)c1cc(=O)c2ccccc2o1	> 1000
CCOc1ccc(NC(=O)c2cc(=O)c3ccccc3o2)cc1	> 1000
COc1cccc2oc(C(=O)Nc3ccc(C(F)(F)F)cc3)cc(=O)c12	175
COc1cccc2oc(C(=O)Nc3ccc(Br)cc3)cc(=O)c12	378
COc1ccc2c(=O)cc(C(=O)Nc3ccccc3C)oc2c1	5.33
O=C(Nc1ccc(Br)cc1)c1cc(=O)c2ccccc2o1	41
O=C(Nc1ccc(C(F)(F)F)cc1)c1cc(=O)c2ccc(Br)cc2o1	167
COc1ccc(NC(=O)c2cc(=O)c3c(OC)cccc3o2)cc1	191

Results, then the molecule that gave them:

EC50 [µM]	SMILES
80	Cc1ccc2oc(C(=O)Nc3ccc(C)c(Cl)c3)cc(=O)c2c1
40.7	Cc1ccc2oc(C(=O)Nc3ccc(Cl)c(C(F)(F)F)c3)cc(=O)c2c1
45.2	COc1ccc2c(=O)cc(C(=O)Nc3ccc(C)c(Cl)c3)oc2c1
32.3	COc1cc(OC)c2c(=O)cc(C(=O)Nc3ccc(Cl)c(Cl)c3)oc2c1
91.8	O=C(Nc1ccc(F)c(F)c1)c1cc(=O)c2ccccc2o1
86.5	COc1ccc2c(=O)cc(C(=O)Nc3ccc(Cl)c(C(F)(F)F)c3)oc2c1
41	Cc1ccc2oc(C(=O)Nc3ccc(F)c(F)c3)cc(=O)c2c1
174	COc1ccc(NC(=O)c2cc(=O)c3ccc(Br)cc3o2)cc1
138	O=C(Nc1ccc(F)c(F)c1)c1cc(=O)c2ccc(Br)cc2o1
40.3	Cc1ccc2oc(C(=O)Nc3ccc(Cl)c(Cl)c3)cc(=O)c2c1
31.7	Cc1ccc(NC(=O)c2cc(=O)c3ccccc3o2)cc1C
821	Cc1ccc(NC(=O)c2cc(=O)c3ccc(Br)cc3o2)cc1C
115	COc1cc(OC)c2c(=O)cc(C(=O)Nc3ccc(C)c(Cl)c3)oc2c1
30.1	Cc1ccc(NC(=O)c2cc(=O)c3ccccc3o2)cc1Cl
45.3	Cc1ccc(Cl)cc1NC(=O)c1cc(=O)c2ccccc2o1
37.9	Cc1ccc(NC(=O)c2cc(=O)c3ccc(Br)cc3o2)cc1Cl
82	COc1ccc2c(=O)cc(C(=O)Nc3ccc(Cl)c(Cl)c3)oc2c1
89.5	COc1ccc2c(=O)cc(C(=O)Nc3ccc(Br)cc3)oc2c1
50	O=C(Nc1ccc(Br)cc1)c1cc(=O)c2ccc(Br)cc2o1
83.7	COc1cccc2oc(C(=O)Nc3ccc(Cl)c(F)c3)cc(=O)c12
11.1	COc1ccc2c(=O)cc(C(=O)Nc3ccc(Cl)c(F)c3)oc2c1
40.5	Cc1ccc2oc(C(=O)Nc3cc(Cl)ccc3C)cc(=O)c2c1
208	COc1cccc2oc(C(=O)Nc3ccc(F)c(F)c3)cc(=O)c12

Target: T1, Prostaglandin G/H synthase 2 (Homo sapiens, UniProt P35354)
T1 sequence (P35354 whole entry): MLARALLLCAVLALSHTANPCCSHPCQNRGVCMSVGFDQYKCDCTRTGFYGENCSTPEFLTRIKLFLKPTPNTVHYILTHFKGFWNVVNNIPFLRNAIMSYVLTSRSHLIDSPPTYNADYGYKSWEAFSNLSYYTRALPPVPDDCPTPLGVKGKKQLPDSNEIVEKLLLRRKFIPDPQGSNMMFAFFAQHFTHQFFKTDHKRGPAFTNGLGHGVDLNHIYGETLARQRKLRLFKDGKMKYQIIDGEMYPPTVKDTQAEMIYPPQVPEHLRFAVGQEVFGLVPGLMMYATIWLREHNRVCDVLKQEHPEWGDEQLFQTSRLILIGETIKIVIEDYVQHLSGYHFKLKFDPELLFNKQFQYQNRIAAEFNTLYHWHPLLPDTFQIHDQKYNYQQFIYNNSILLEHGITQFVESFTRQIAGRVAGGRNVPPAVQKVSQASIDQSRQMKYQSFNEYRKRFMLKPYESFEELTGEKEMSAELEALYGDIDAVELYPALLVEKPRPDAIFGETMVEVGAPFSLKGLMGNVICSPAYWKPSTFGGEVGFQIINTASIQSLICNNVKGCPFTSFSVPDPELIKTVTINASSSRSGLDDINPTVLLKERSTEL
Experiment: Inhibition of COX-2 (unknown origin)

IC50 [µM]	SMILES
0.02	O=C1Nc2ccccc2/C1=C/c1coc2ccccc2c1=O

Target: T2, Interleukin-5 (Homo sapiens, UniProt P05113)
T2 sequence (P05113 whole entry): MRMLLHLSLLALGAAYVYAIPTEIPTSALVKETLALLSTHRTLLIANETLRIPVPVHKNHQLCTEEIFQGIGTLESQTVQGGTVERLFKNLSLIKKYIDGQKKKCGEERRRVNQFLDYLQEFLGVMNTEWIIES
Experiment: Inhibition of IL-5 (unknown origin)

IC50 [µM]	SMILES
4	O=c1c(CCC(O)c2ccc(O)cc2)coc2cccc(OCC3CCCCC3)c12 (stereo unspecified)
